Laboratory results published in patent US20230117920A1, “Library Construction Method, Cyclic Peptide, FXIIa Binder and IFNGR1 Binder” (The University of Tokyo, priority 2019, published 2023).
Positions of bridges follow the written chain, without caps; N, C: chain ends. Non-standard residues stand in square brackets, D forms with d. Residues, ends and D or L forms follow the SMILES beside them.

Key:
[1] = biological target: T1, interferon γ receptor 1 (IFNGR1) (Homo sapiens, UniProt P15260); assay: biochemical; conditions: read-out: ka
[2] = biological target: T1, interferon γ receptor 1 (IFNGR1); conditions: SPR, 25° C., 1:1 interaction model
Target sequence in this assay (P15260 18-245 limits assumed): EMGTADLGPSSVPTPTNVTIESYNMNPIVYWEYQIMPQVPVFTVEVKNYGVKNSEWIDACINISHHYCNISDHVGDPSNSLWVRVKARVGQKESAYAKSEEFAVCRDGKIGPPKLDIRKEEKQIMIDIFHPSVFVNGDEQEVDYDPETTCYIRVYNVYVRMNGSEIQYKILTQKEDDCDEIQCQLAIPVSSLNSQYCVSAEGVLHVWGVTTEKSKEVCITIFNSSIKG
Experimental: Recombinant biotinylated human FXIIa was purchased from Molecular Innovations. The recombinant human IgG1 Fc and Fc labeled human IFNGR1 were purchased from R&D systems and AcroBiosystems, respectively.
The binding kinetics of those peptides to FXIIA and IFNGR1 was analyzed by surface plasmon resonance. […] The binding affinity was analyzed at 25° C. by SPR by using a Biacore T200 apparatus (GE Healthcare). The peptides, each used at five different concentrations, were injected at a floe rate of 30 μL/min and the rate constant was measured by single cycle kinetics method. The binding sensorgrams thus obtained were analyzed using a Biacore evaluation software and was fitted to a standard 1:1 interaction model.

CC(C)[C@@H]1NC(=O)CNC(=O)[C@H](Cc2ccccc2)NC(=O)[C@@H](Cc2ccc(O)cc2)NC(=O)CSC[C@H](C(N)=O)NC(=O)[C@H]([C@@H](C)O)NC(=O)[C@H](CCCNC(=N)N)NC(=O)[C@H](CC(N)=O)NC(=O)[C@H](Cc2ccc(O)cc2)NC(=O)[C@H](Cc2ccccc2)NC(=O)[C@H](C)NC(=O)[C@H](CCCNC(=N)N)NC1=O [I1-1A] ({CH2CO}-[dY]FGVRAFYNRT[dC]-NH2; thioether N-12)
kon [1]: 20000 M⁻¹ s⁻¹
kd [2]: 4.12 10^−2 · s^−1
